One data set concerns HCT-116. The data set is described as follows: Growth inhibition assay. Type of data set: cell-based. The settings on record: Homo sapiens, HCT-116; read-out: HCT-116 GI50 (μM) Mean ± S.E. On the procedure:
(§1) Cells were seeded in 96-well plastic plates and exposed to MPT0L056 for 48 hours. Cell viability was assessed using the 3-(4,5-dimethylthiazol-2-yl)-2,5-diphenyltetrazolium bromide assay. Growth inhibition was expressed as the percentage of surviving cells in drug-treated versus DMSO-treated control cells.
(§2) The compounds of the invention were subjected to growth inhibition assay.

Another data set relates to HL-60. The data set is described as follows: Growth inhibition assay. The class given is cell-based. The settings on record: Homo sapiens, HL-60; read-out: HL-60 IC50 (μM) Mean ± S.E. On the procedure: as §1, §2
In the next data set the test system is Hep 3B. Kind of data set: Growth inhibition assay. The class given is cell-based. The following applies: Homo sapiens, Hep3B; read-out: Hep3B GI50 (μM) Mean ± S.E. On the procedure:
as §1, §2

In a further data set the test system is MDA-MB-231. Kind of data set: Growth inhibition assay. The class given is cell-based. The settings on record: Homo sapiens, MDA-MB-231; read-out: MDA-MB-231 GI50 (μM) Mean ± S.E. On the procedure:
as §1, §2

Data set [1] relates to human RPMI8226 multiple myeloma. The data set is described as follows: Human RPMI8226 multiple myeloma xenograft in female nude mice (TMU-RPMI8226-e0001). Type of data set: in vivo. The settings on record: SAHA 100 mg/kg once every day. An excerpt:
The 42-day study utilized five groups of mice (n=6) bearing established human PRMI8226 multiple myeloma with mean volumes of ˜85 mm^3 on D1. […] (FIG. 3).

Data set [2] has as its system human A2780 ovarian adenocarcinoma. Kind of data set: Human A2780 ovarian cancer xenograft in female nude mice (TMU-A2780-e0001). The class given is in vivo.
Data set [3] relates to HCT116 human colorectal adenocarcinoma. The method, then: MPT0L056 was used to evaluate for activity against the HCT116 human colorectal adenocarcinoma.
However, MPT0E028 was administered orally (p.o.) in 1.0% CMC and 0.5% Tween 80 and given dose at 25 mg/kg daily to end schedule.
Each animal was euthanized when the tumors reached the predetermined endpoint size of 1,000 mm^3. The time to endpoint (TTE) for each mouse was calculated by the following equation:
[formula] where TTE is expressed in days, endpoint volume is in mm^3, b is the intercept, and m is the slope of the line obtained by linear regression of a log-transformed tumor growth data set. The data set is comprised of the first observation that exceeded the study endpoint volume and the three consecutive observations that immediately preceded the attainment of the endpoint volume. The calculated TTE is usually less than the day on which an animal is euthanized for tumor size. […] An animal classified as having died from treatment-related (TR) causes or non-treatment-related metastasis (NTRm) causes was assigned a TTE value equal to the day of death. An animal classified as having died from non-treatment-related (NTR) causes was excluded from TTE calculations.
Treatment efficacy was determined from tumor growth delay (TGD), which is defined as the increase in the median TTE for a treatment group compared to the control group: TGD=T−C, expressed in days, or as a percentage of the median TTE of the control group:
[formula] where: • T=median TTE for a treatment group, • C=median TTE for control Group 1.
Treatment efficacy was also determined from the tumor volumes of animals remaining in the study on the last day, and from the number of regression responses. The MTV(n) is defined as the median tumor volume on D59 in the number of animals remaining, n, whose tumors have not attained the endpoint volume.
Treatment may cause a partial regression (PR) or a complete regression (CR) of the tumor in an animal. […] An animal with a CR at the termination of a study is additionally classified as a tumor-free survivor (TFS).
Animals were weighed daily for the first five days, then twice weekly until the completion of the study. The mice were examined frequently for overt signs of any adverse, drug-related side effects. Acceptable toxicity for the MTD of cancer drugs is defined as a group mean BW loss of 20% or less during the test, and not more than one TR death among ten animals. A death is classified as TR if there is evidence of treatment side effects from clinical signs and/or necropsy or from unknown causes during dosing period or within 10 days of the last dose. A death is classified as NTR if there is no evidence that the death was related to treatment side effects.
The logrank test was used to determine the statistical significance of the difference between the TTE values of two groups, except any NTR deaths. Statistical and graphical analyses were performed with Prism 3.03 (GraphPad) for Windows. The two-tailed statistical analyses were conducted at P=0.05. Kaplan-Meier plots show the percentage of animals remaining in the study versus time. The Kaplan-Meier plots use the same data set as the log rank test. The tumor growth curves show the group median tumor volume, on a log scale as a function of time.

Data set [4] relates to human MDA-MB-231 breast adenocarcinoma. The data set is described as follows: Human MDA-MB-231 breast cancer xenograft in female nude mice (TMU-MDA-MB-231-e0002). The following applies: bortezomib 1 mg/kg QWK to end.
[5] abbreviates: Group 3: bortezomib 1 mg/kg iv qwk to endpoint.
The mark [6] stands for this setting: Group 3: bortezomib 1 mg/kg iv qwk to endpoint, listed as Bortezomib.
The mark [7] stands for this setting: Group 6: bortezomib 1 mg/kg iv qwk + MPT0E028 25 mg/kg po qd to endpoint.
The mark [8] stands for this setting: Group 6: bortezomib 1 mg/kg iv qwk + MPT0E028 25 mg/kg po qd to endpoint, listed as Bortezomib.

Each structure is given as a SMILES string. Read-outs that look alike come from different tables or passages of the source.

With `O=C(Nc1cnc2ccccc2c1)c1ccc(CNC2=C(Cl)C(=O)c3ccccc3C2=O)cc1` [MPT0L110, 4-((3-chloro-1,4-dioxo-1,4-dihydronaphthalen-2-ylamino)methyl)-N-(quinolin-3-yl)benzamide], the concentration for 50% growth inhibition (GI50) in the data set on HCT-116, with Hep 3B and with MDA-MB-231 was 10 to 30 µM each time. The IC50 in the data set on HL-60 came out at 7.93 ± 1.14 µM.
Turning to `O=C(Nc1cccc2ncccc12)c1ccc(CNC2=C(Cl)C(=O)c3ccccc3C2=O)cc1` [MPT0L111, 4-((3-chloro-1,4-dioxo-1,4-dihydronaphthalen-2-ylamino)methyl)-N-(quinolin-5-yl)benzamide], the concentration for 50% growth inhibition (GI50) with HCT-116, with Hep 3B and in the data set on MDA-MB-231 was 10 to 30 µM throughout. Moreover, the half-inhibitory concentration (IC50) in the data set on HL-60 turned out to be 2.23 ± 0.27 µM.
`Cc1cc(NC(=O)c2ccc(CNC3=C(Cl)C(=O)c4ccccc4C3=O)cc2)c2ccccc2n1` [MPT0L112, 4-((3-chloro-1,4-dioxo-1,4-dihydronaphthalen-2-ylamino)methyl)-N-(2-methylquinolin-4-yl)benzamide]: the results for the 50% growth inhibitory concentration (GI50) in the data set on HCT-116, with Hep 3B and in the data set with MDA-MB-231 were 10 to 30 µM, 10 to 30 µM and 8.12 ± 1.32 µM, respectively. The IC50 with HL-60 is 2.68 ± 0.03 µM.
As for `O=C(Nc1ccc2[nH]ccc2c1)c1ccc(CNC2=C(Cl)C(=O)c3ccccc3C2=O)cc1` [MPT0L113, 4-((3-chloro-1,4-dioxo-1,4-dihydronaphthalen-2-ylamino)methyl)-N-(1H-indol-5-yl)benzamide], the GI50 in the data set on HCT-116, in the data set with Hep 3B and in the data set with MDA-MB-231 was 10 to 30 µM throughout. Besides, the IC50 with HL-60 turned out to be 8.92 ± 0.39 µM.
Consider `Cc1cc2cc(NC(=O)c3ccc(CNC4=C(Cl)C(=O)c5ccccc5C4=O)cc3)ccc2[nH]1` [MPT0L114, 4-((3-chloro-1,4-dioxo-1,4-dihydronaphthalen-2-ylamino)methyl)-N-(2-methyl-1H-indol-5-yl)benzamide], for which the GI50 in the data set with HCT-116, with Hep 3B and in the data set on MDA-MB-231 was 10 to 30 µM in each case. In addition, the IC50 in the data set on HL-60 was 10 to 30 µM.
With `O=C(Nc1cccc2[nH]ccc12)c1ccc(CNC2=C(Cl)C(=O)c3ccccc3C2=O)cc1` [MPT0L116, 4-((3-chloro-1,4-dioxo-1,4-dihydronaphthalen-2-ylamino)methyl)-N-(1H-indol-4-yl)benzamide], the 50% growth inhibitory concentration (GI50) in the data set on HCT-116, in the data set with Hep 3B and with MDA-MB-231 was 10 to 30 µM in each case. Moreover, the IC50 with HL-60 was determined as 4.06 ± 1.82 µM.
On to `O=C(Nc1ccc2cn[nH]c2c1)c1ccc(CNC2=C(Cl)C(=O)c3ccccc3C2=O)cc1` [MPT0L118, 4-((3-chloro-1,4-dioxo-1,4-dihydronaphthalen-2-ylamino)methyl)-N-(1H-indazol-6-yl)benzamide], for which the GI50 in the data set with HCT-116, in the data set on Hep 3B and with MDA-MB-231 was 10 to 30 µM in each case. The IC50 with HL-60 came to 7.39 ± 3.49 µM.
For the compound `O=C(Nc1cnc2[nH]ccc2c1)c1ccc(CNC2=C(Cl)C(=O)c3ccccc3C2=O)cc1` [MPT0L119, 4-((3-chloro-1,4-dioxo-1,4-dihydronaphthalen-2-ylamino)methyl)-N-(1H-pyrrolo[2,3-b]pyridin-5-yl)benzamide], the GI50 in the data set on HCT-116, in the data set with Hep 3B and in the data set with MDA-MB-231 was 10 to 30 µM throughout. For the same compound, the half-inhibitory concentration (IC50) with HL-60 is 10 to 30 µM.
In the case of `O=C(Nc1cnc2[nH]ncc2c1)c1ccc(CNC2=C(Cl)C(=O)c3ccccc3C2=O)cc1` [MPT0L120, 4-((3-chloro-1,4-dioxo-1,4-dihydronaphthalen-2-ylamino)methyl)-N-(1H-pyrazolo[3,4-b]pyridin-5-yl)benzamide], the GI50 in the data set on HCT-116, with Hep 3B and in the data set with MDA-MB-231 was 10 to 30 µM in each case. Further, the IC50 in the data set with HL-60 came out at 7.31 ± 1.94 µM.
For the compound `Cn1ccc2c(NC(=O)c3ccc(CNC4=C(Cl)C(=O)c5ccccc5C4=O)cc3)ncnc21` [MPT0L121, 4-((3-chloro-1,4-dioxo-1,4-dihydronaphthalen-2-ylamino)methyl)-N-(7-methyl-711-pyrrolo[2,3-d]pyrimidin-4-yl)benzamide], the GI50 in the data set on HCT-116, in the data set on Hep 3B and in the data set with MDA-MB-231 was 10 to 30 µM throughout. Besides, the IC50 in the data set with HL-60 is 2.68 ± 0.17 µM.
As for `O=C(CCCCCCC(=O)Nc1ccccc1)NO` [SAHA, reference compound], in data set [1], the antitumor activity entry is recorded as “also showed antitumor activity” and the “mice with complete regression” value was “one of six”.
In the case of `CC(C)C[C@H](NC(=O)[C@H](Cc1ccccc1)NC(=O)c1cnccn1)B(O)O` [bortezomib, reference compound], in data set [2] (bortezomib 1 mg/kg QWK to end), the antitumor activity entry was “showed antitumor activity”. In data set [3] (Group 1 vs 3: bortezomib 1 mg/kg), the “Median survival” value came to 38.95. Also, the “Median survival” value in data set [3] (Group 1 vs 6: bortezomib + MPT0E028 1/25 mg/kg) stood at 38.4. Also, in data set [3] (setting [5]), the “% TGD” value amounted to 71%, the “MTV (n) Day 59” value was 683 mm^3, the “Median TTE” value turned out to be 38.9 days and the “No. of CR” value was determined as 2. Moreover, in data set [3] (setting [5]), the “No. of LTTFS” value amounted to 0, the “No. of NTR” value is reported as 0, the “No. of PR” value worked out at 1 and the “No. of TR” value was determined as 0. Also, in data set [3] (setting [5]), the T-C is listed as 16.2 days and the “antitumor activity (logrank analysis)” value was “produced significant antitumor activity”. Besides, the “Logrank Significance” value in data set [3] (Group 3: bortezomib 1 mg/kg iv qwk to endpoint, compared to Group 1) is listed as “* (* = P < 0.05)”. Further, in data set [3] (setting [6]), the “% TGD” value was 71%, the “No. of CR” value is listed as “two” and the “No. of PR” value is reported as “one”. For the same compound, in data set [3] (setting [7]), the “% TGD” value is on record as 69%, the “MTV (n) Day 59” value is recorded as 0 mm^3, the “Median TTE” value is 38.4 days and the “No. of CR” value is reported as 1. Also, in data set [3] (setting [7]), the “No. of LTTFS” value is reported as 1, the “No. of NTR” value is 4, the “No. of PR” value is on record as 1 and the “No. of TR” value is 0. Further, in data set [3] (setting [7]), the T-C amounted to 15.7 days. Moreover, in data set [3] (setting [8]), the “% TGD” value came to 69%, the “No. of CR” value is listed as “one”, the “No. of LTTFS” value was “one” and the “No. of PR” value was “one”. The antitumor activity entry in data set [4] was “did not show antitumor activity”.
Take `N.N.[Cl][Pt][Cl]` [cisplatin, reference compound]: in data set [2] (cisplatin 5 mg/kg QWK to end), the antitumor activity result was “showed antitumor activity”.

The record behind these values is US11919858B2, “Aminonapthoquinone compounds and pharmaceutical composition for blocking ubiquitination-proteasome system in diseases” (Calgent Biotechnology Co., Ltd., priority 2015, dated 2024).
